Consider nine molecules from patent US11034692B1 (Genentech, Inc., priority 2017, dated 2021).

Like-named read-outs stand apart in the source and are kept apart here.

Test [1] deals with primary human pan T cells. Kind of test: Human T-Cell IL2 Induction Assay. In kind it is cell-based. As to conditions: anti-CD3/anti-CD28 stimulated primary human pan T cells. On the procedure:
Human T-Cell IL2 Induction Assay
Anti-CD3 and anti-CD28 activates TCR signaling in primary human pan T cells leading to IL-2 promoter induction. Secreted IL-2 in cell culture supernatant is detected by electrochemiluminescence using a capture antibody against IL-2 and an anti-IL-2 antibody labeled with SULFO-tag.
See www.mesoscale.com for additional electrochemiluminescence technology information.
Incubate primary human pan T cells with varying concentrations of test compounds for 30 minutes in a humidified incubator at 37° C. and 5% CO2. Transfer cells to a plate pre-coated with a fixed concentration of anti-human CD3 (determined separately for each donor lot) and add soluble anti-human CD28 (final concentration=1 μg/ml). Stimulate cells in a humidified incubator at 37° C. and 5% CO2 for 4 hours. Transfer 25 μl of supernatant to a MSD single spot plate pre-coated with an anti-human IL-2 antibody. Incubate MSD plate overnight at 4° C. with gentle shaking. Wash MSD plate 4× with wash buffer. Add SULFO-tagged detection antibody at a 1:50 dilution and incubate at room temperature shaking for 2 hours. Wash MSD plate 4× with wash buffer and add 150 μl 2×MSD read buffer. Read on an MSD instrument. Normalize data to stimulated/untreated controls to calculate % activity at each concentration of compound.
Materials: • Frozen Primary Human Pan-T Cells (StemCell Technologies #70024) • anti-human CD3 (OKT3 clone) (eBioscience #16-0037-81) • anti-human CD28 (CD28.2 clone) (BD #555725) • 96-well Human IL-2 tissue culture kit (MSD #K151AHB-4)
Instrumentation: • Biomek FX for liquid handling (Beckman Coulter) • MSD SECTOR S 600 (Meso Scale Discovery)
Exemplary compounds of Formula I or Ia were tested in the human T-cell IL-2 induction assays. The % increase measured for IL-2 in cells treated by the test compounds relative to untreated cells are provided in Table B2 for certain compounds (structures as shown with the HPK1 Ki values).

Test [2] addresses HPK1 (Homo sapiens, UniProt Q92918). Kind of test: HPK1 Lantha Binding Assay ("Lanth"). As to conditions: Table B2, read-out: HPK1 Ki (nM), L = Lanth. The essentials: (§1)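 Compounds in an 11-point 5-fold series were preincubated 1 h at 23 C with 2 nM kinase plus 2 nM Eu-anti-GST antibody. Then 15 nM Tracer222 was added for another hour, and time-resolved FRET was read at 665/615 nm. Ki values come from a Morrison tight-binding model that uses the tracer Kd.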

For test [3], the target named is HPK1. Kind of test: HPK1 Lantha Binding Assay ("Lanth"). The essentials:
as §1

Test [4] concerns the target HPK1-FL (HPK full length, T165E S171E) (Homo sapiens (Human), UniProt Q92918, S171E/T165E). Kind of test: HPK1-FL HTRF Enzymatic Assay ("HTRF"). Format: biochemical. The note with it: Table B2, read-out: HPK1 Ki (nM), H = HTRF. On the procedure: HPK1-FL HTRF Enzymatic Assay (“HTRF”)
HPK-FL enzyme phosphorylates Biotin-SLP-76 substrate in the presence of ATP at 1 mM and varying concentrations of test compound. Product is detected by FRET using Eu-anti-pSLP76 Ab and SA-XL665. See www.cisbio.com/HTRF for additional HTRF technology information.
Instrumentation: • Echo555 compound dispenser • Agilent Bravo • Perkin Elmer Envision
Materials: • Assay plate: White ProxiPlate 384 F (PerkinElmer cat #6008289) • Kinase: HPK full length double mutant • Substrate: Biotin-SLP76 • ATP: 100 mM ATP • BSG: 2% BSG • DMSO: DMSO (Sigma cat #34869-100ML) • Reaction Buffer: H2O/50 mM HEPES, pH 7.5/10 mM MgCl2/2 mM TCEP/0.01% Brij-35/0.01% BSG • Detection mix: Eu-anti-pSLP76/SA-XL665 (Cisbio, #610SAXAC)
Assay Procedure Ki Determination:
To a 384 well Proxiplate with 80 nL compound or DMSO spotted on was added 4 μl/well kinase mix. The mixture was preincubated for 30 minutes and then 4 μl/well substrate mix was added. The solution was incubated for 60 min and then 4 μl/well detection mix was added. The solution was incubated for another 60 min. The plates were then loaded onto a Perkin Elmer Envision and the TR-FRET signal was measured at 615 and 665 nm. A ratio of […] was used to calculate the % activity at each concentration of compound.
(In TR-FRET formats the signal depends on donor and acceptor labels being close together.)

Setting [5] is: Table B1-1, read-out: HPK1 Ki (μM) (Lanth).
Where [6] appears, read: Table B2, read-out: HPK1 Ki (nM), L = Lanth.
The mark [7] stands for this setting: Table B1-2, read-out: HPK1 Ki, L = Lanth.

Chain of HPK1 (Homo sapiens, UniProt Q92918) (Q92918 whole entry, looked up): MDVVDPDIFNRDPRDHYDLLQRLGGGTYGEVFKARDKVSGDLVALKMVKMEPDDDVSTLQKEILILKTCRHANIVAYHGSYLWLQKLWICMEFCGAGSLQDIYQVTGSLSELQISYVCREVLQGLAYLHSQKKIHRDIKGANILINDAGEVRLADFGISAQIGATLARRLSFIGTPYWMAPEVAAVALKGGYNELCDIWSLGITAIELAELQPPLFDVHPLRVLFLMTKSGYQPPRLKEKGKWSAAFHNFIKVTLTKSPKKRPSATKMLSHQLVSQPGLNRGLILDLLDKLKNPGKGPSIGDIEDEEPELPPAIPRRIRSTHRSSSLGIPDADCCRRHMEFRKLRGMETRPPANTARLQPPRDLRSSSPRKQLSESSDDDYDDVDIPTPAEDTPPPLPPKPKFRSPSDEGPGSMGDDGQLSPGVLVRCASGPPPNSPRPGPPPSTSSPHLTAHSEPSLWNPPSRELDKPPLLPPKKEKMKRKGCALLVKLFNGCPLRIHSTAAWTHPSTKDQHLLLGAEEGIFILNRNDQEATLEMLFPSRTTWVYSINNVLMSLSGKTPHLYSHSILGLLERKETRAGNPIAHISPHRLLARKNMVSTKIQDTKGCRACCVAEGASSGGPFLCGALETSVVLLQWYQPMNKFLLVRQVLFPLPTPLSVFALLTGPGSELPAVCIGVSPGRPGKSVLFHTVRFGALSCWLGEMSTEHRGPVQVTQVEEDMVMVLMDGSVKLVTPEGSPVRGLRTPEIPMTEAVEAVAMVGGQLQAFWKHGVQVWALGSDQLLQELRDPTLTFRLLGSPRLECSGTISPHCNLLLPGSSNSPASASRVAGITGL
Chain of HPK1-FL (HPK full length, T165E S171E) (Q92918 whole entry T165E/S171E): as the sequence (Q92918 whole entry, looked up) above, with T165E, S171E counted along it

As to `Cc1cc(-c2ncco2)ccc1-c1cc2cc(NC(=O)[C@H]3C[C@@H]3c3cnn(C)c3)ncc2c(N)n1` (single isomer, unassigned) [Compound 379], the “% IL-2 increase relative to untreated cells” value in test [1] (assayed concentration 2.8 μM) is 547%.

`Cc1n[nH]c(C)c1-c1cc2cc(NC(=O)[C@@H]3C[C@@H]3F)ncc2c(N)n1` (racemic) [Compound 103, (±)-cis-N-(8-amino-6-{3,5-dimethyl-1H-pyrazol-4-yl)-2,7-naphthyridin-3-yl)-2-fluorocyclopropane-1-carboxamide]: the Ki at HPK1 [2] was 3.8 nM. Also, in test [1] (assayed concentration 0.31 μM), the “% IL-2 increase relative to untreated cells” value turned out to be 94%.

For the molecule `Cc1ccncc1-c1cc2cc(NC(=O)C3CC3)ncc2c(N)n1` [Compound 24, N-(8-amino-6-(4-methylpyridin-3-yl)-2,7-naphthyridin-3-yl)cyclopropanecarboxamide], the Ki at HPK1 [3] (setting [5]) and at HPK1 [3] (setting [6]) was 680 pM throughout. The “% IL-2 increase relative to untreated cells” value in test [1] (assayed concentration 0.93 μM) was found to be 513%.

With `CNC(=O)Nc1cc2cc(-c3cnccc3C)nc(N)c2cn1` [Compound 130, 1-[8-amino-6-(4-methyl-3-pyridyl)-2,7-naphthyridin-3-yl]-3-methyl-urea], the inhibitory constant (Ki) at HPK1 [3] (setting [5]) and on HPK1 [3] (setting [6]) was 2600 pM in each case. Besides, the “% IL-2 increase relative to untreated cells” value in test [1] (assayed concentration 0.93 μM) is 274%.

Turning to `Cc1ccncc1-c1cc2cc(Nc3cnn([C@H](C)C#N)c3)ncc2c(N)n1` (single isomer, unassigned) [Compound 273], the inhibition constant (Ki) on HPK1 [2] turned out to be 0.06 nM; on HPK1 [3] (setting [5]), 67.5 pM. Moreover, the “% IL-2 increase relative to untreated cells” value in test [1] (assayed concentration 0.93 μM) is listed as 830%.

With `Cc1ccncc1-c1cc2cc(NC(=O)[C@H]3[C@@H](C)[C@@H]3c3cnn(C)c3)ncc2c(N)n1` (single isomer, unassigned) [Compound 328], the Ki at HPK1 [3] (setting [5]) was 114 pM; at HPK1 [3] (setting [6]), 110 pM. Moreover, in test [1] (assayed concentration 0.93 μM), the “% IL-2 increase relative to untreated cells” value is 936%.

Regarding `Cc1ccncc1-c1cc2cc(Nc3cc4n(n3)CC(=O)N(C)CC4)ncc2c(N)n1` [Compound 256, 2-[[8-amino-6-(4-methylpyridin-3-yl)-2,7-naphthyridin-3-yl]amino]-6-methyl-4H,5H,6H,7H,8H-pyrazolo[1,5-d][1,4]diazepin-7-one], the Ki in test [4] was 0.59 nM; on HPK1 [3] (setting [5]), 20 pM. Besides, the “% IL-2 increase relative to untreated cells” value in test [1] (assayed concentration 0.31 μM) was 699%.

As to `Cc1ccncc1-c1cc2cc(Nc3ccc(CC#N)cn3)ncc2c(N)n1` [Compound 389, 2-[6-[[8-amino-6-(4-methyl-3-pyridyl)-2,7-naphthyridin-3-yl]amino]-3-pyridyl]acetonitrile], the inhibition constant Ki on HPK1 [3] (setting [7]) and on HPK1 [3] (setting [6]) was 33 pM each time. Also, in test [1] (assayed concentration 0.10 μM), the “% IL-2 increase relative to untreated cells” value amounted to 265%.

Consider `Cc1cccc(F)c1-c1cc2cc(NC(=O)[C@@H]3[C@H](C)[C@H]3c3cnn(C)c3)ncc2c(N)n1` (single isomer, unassigned) [Compound 356], for which the Ki at HPK1 [3] (setting [7]) and on HPK1 [3] (setting [6]) was 300 pM in each case. In addition, the “% IL-2 increase relative to untreated cells” value in test [1] (assayed concentration 2.8 μM) is listed as 732%.

As a reminder, the Ki is a dissociation constant, usually derived from enzyme kinetics or from competition with a known ligand.
